Target: T1, Sodium- and chloride-dependent glycine transporter 2 (Homo sapiens, UniProt Q9Y345)
T1 sequence (Q9Y345 whole entry): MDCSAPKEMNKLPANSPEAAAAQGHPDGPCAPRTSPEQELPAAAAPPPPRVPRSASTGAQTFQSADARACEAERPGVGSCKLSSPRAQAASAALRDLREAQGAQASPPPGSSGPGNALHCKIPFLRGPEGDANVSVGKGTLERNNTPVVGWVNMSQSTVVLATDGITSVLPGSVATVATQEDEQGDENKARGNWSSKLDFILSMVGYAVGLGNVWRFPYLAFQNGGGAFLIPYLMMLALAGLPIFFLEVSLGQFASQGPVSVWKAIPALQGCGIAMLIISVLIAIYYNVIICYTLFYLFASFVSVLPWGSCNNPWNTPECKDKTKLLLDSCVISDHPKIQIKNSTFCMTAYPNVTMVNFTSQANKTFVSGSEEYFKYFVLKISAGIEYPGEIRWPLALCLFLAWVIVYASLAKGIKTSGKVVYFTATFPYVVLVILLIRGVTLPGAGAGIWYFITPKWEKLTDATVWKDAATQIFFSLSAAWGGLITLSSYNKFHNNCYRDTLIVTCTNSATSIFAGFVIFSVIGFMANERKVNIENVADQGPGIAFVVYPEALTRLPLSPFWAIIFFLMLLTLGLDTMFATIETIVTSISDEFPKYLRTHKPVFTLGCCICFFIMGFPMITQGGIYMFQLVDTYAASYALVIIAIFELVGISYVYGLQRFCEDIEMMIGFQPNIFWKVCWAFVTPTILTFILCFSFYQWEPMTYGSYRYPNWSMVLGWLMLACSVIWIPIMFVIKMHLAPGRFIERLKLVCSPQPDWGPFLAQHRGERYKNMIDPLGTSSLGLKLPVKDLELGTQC
Description: Substrate uptake by the Glycine Transporter-2 (GlyT2, SLC6A5) as assessed by the fluorescent FLIPR membrane potential dye in HEK-293 JumpIN-SLC6A5 cells (PubChem AID: 1794825)

`NCC(=O)O` [GLYCINE] showed an EC50 of 128 µM.

From ChEMBL document CHEMBL5209581, “Membrane potential based assay for SLC6A5 using HEK-293 SLC6A5 OE cells” (2022)
